Legend:
MCF-7 (breast cancer) = test: In vitro cytotoxicity test (MTT) against human tumour cell line MCF-7; format: cell-based; details: MCF-7, 24 h contact, 48 h re-growth
Protocol: Human tumour cell lines A549 (lung cancer), HCT-15 (colon cancer) and MCF-7 (breast cancer) have been obtained from the Developmental Therapeutics Program of the National Cancer Institute (Rockville, Md., USA). Cells were routinely grown with RPMI 1640 medium supplemented with 10% foetal calf serum, both obtained from Biochrom AG (Berlin, Germany). They were grown on Petri dishes (Nunc, Denmark) at 37° C. in a humidified atmosphere containing 5% CO2. Cells were replicated every 4 days and the medium changed once in-between.
Cytotoxicity has been evaluated on exponentially growing cells grown for 24 h in presence of the compounds to be tested. Briefly, 4000 cells were seeded in 96-well plates with 200 μL of complete medium; 24 hours later the medium was supplemented with a series of different concentrations of compounds and the contact maintained for 24 h. Compounds were dissolved in pure water and sterilised using polycarbonate membrane filters of 0.22 μm (Millipore, Molsheim, France). The cells were then allowed to re-grow for 48 hours; viable and metabolically active cells were quantitatively estimated by coloration with the MTT dye (1-(4,5-dimethylthyazol-2-yl)-3,5-diphenylformazan), Sigma-Aldrich Chimie, Saint-Quentin-Fallavier, France). The amount of substance allowing a 50% decrease in cell numbers is indicative of the cytotoxicity and represents the IC50 of compound.

[1] = test system: DNA topoisomerase II (Topo II); test: Topo II catalytic activity, decatenation of kDNA; format: biochemical; details: 1, 10, 100 and 1000 μM; dose independent
Protocol: Test for revelation of the possible inhibitory effect of SDD on Topo II catalytic activity has been undertaken by decatenation of a catenated DNA substrate originating from Trypanosoma kinetoplasts (kDNA, TopoGen) into relaxed DNA forms.
The following standard reaction mixture contained 40 mM Tris/HCl pH 7.4, 10 mM MgCl2, 0.5 mM dithiothreitol, 1 mM ATP and […] kDNA has been carried out.
The reaction was initiated by the addition of 0.35 M NaCl nuclear extract and stopped after 20 min incubation at 37° C. by adding a denaturating solution containing 30% glycerol, 1% SDS, 0.5 mg/ml bromphenol blue.
The samples were then electrophoresed on a 1% agarose gel in 40 mM Tris/acetic acid, pH 8.0 containing 2 mM EDTA and 0.1 μg/ml ethidium bromide, for 45 min at 80V.
A positive control for decatenation was a decatenated kDNA marker obtained from TopoGen, containing a mixture of two species of relaxed
DNA, open circular DNA and covalently closed circular DNA.
DNA was visualized under UV light and the various DNA forms were quantified by densitometric scanning using the device described above.
Etoposide was used as positive control, as it is described in the following publication: Differential stabilisation of topoisomerase-II-DNA cleavable complexes doxorubicine and etoposide in doxorubicin-resistant rat glioblastoma cells. […]

CCN1C[C@]2(COC)[C@H](O)C[C@H](OC)[C@]34C1[C@H]([C@H](OC)[C@H]23)[C@]1(OC(=O)CCCCCCC(=O)O[C@]23[C@H]5[C@@H](OC(=O)c6ccccc6)[C@](O)(C[C@H]5[C@@]56C7[C@@H]2[C@H](OC)[C@@H]5[C@](COC)(CN7CC)[C@H](O)C[C@@H]6OC)[C@@H](OC)[C@@H]3O)[C@H]2[C@@H](OC(=O)c3ccccc3)[C@](O)(C[C@H]24)[C@@H](OC)[C@@H]1O [SDD, bis[O-(14-benzoylaconine-8-yl)]-suberate]
IC50 (MCF-7 (breast cancer)): 3.7 µM
inhibition of Topo II activity compared to etoposide [1]: relatively moderate inhibition

Reference: patent US8703790B2, “Bis [O-(14-benzoylaconine-8-yl)] esters” (priority 2008, dated 2014)
